# From patent US20230277491A1, “PHARMACEUTICAL COMBINATION COMPRISING GLYCOLIC ACID AND L-ALANINE” (priority 2020, published 2023)
# How the values were obtained:
# [1] = system: HeLa cells treated with siRNA against PARK-7/DJ-1; assay: Calcium imaging on HeLa cells during mitosis after PARK-7/DJ-1 down-regulation; assay type: cell-based; settings: PARK-7/DJ-1 down-regulated HeLa cells, 5 mM, FIG. 17
# Protocol: HeLa cells were loaded with Fluo-4 AM, a dye used to measure calcium concentration in living cells, as described by the manufacturer and recorded for 4 hours. Graphics show the variations in intracellular calcium concentration during mitosis in WT and cells treated with siRNA against PARK-7/DJ-1 to down-regulate this gene.
# HeLa-Kyoto cells stably expressing histone H2B-mCherry and mouse DJ-1 were used. Cells were maintained in DMEM supplemented with 10% fetal bovine serum (FBS), 2 mM GlutaMAX, 100 unit/ml penicillin, 100 μg/ml streptomycin. For esiRNA treatment, cells were plated at a density of 15.000 cells/well in an ibidi 8 well chamber (Cat. no 80826, ibidi, Germany, EU), transfected with different esiRNAs (RLUC as empty vector, hPARK-7 and hKIF11 as positive control) (all esiRNAs were obtained from Eupheria, Germany, EU), and left for 72 hours before performing calcium imaging. esiRNA transfection was performed as follows. esiRNA was diluted in distilled water to a concentration of 20 ng/μl. For each well, two solutions were made: 1. […]
# We observed that the Fluo-4 AM dye started to leak out of the cells into the medium after 1.5 hours of imaging. […] Images were analyzed using FIJI Image Analysis Freeware (https://fiji.sc). MFI of the Fluo-4 AM signal within the cell was determined using manually selected ROIs covering the whole cell area for each time-point. […]
# [2] = human, in vivo
# Protocol: Preliminary pharmacokinetic analyses were undertaken in order to determine whether the GA and DL administered to the patients orally were absorbed into the blood stream and into the CSF. […] As can also be observed, DL levels reach 140 mg/L in the blood 1-hour post-administration and are reduced to approx. 20 mg/I after 2- or 3-hours post-administration.
# As can be observed in FIG. 9, GA levels are approximately 20 mg/I in the CSF 1-hour post-administration. As can also be observed, DL levels are approximately 5 mg/I in the CSF 1-hour post-administration. 100 mg/kg GA and 100 mg/kg DL was administered in patients to obtain the pharmacokinetic data.
# dopaminergic neurons = assay: Morphology of dopaminergic TH+ neurons in primary mesencephalic culture; assay type: cell-based, mouse; settings: 5 mM GA, FIG. 14
# Protocol: Effect of GA treatment on the morphology of dopaminergic neurons. Fluorescent microscopy images on the left show to TH+ neurons in a primary mesencephalic cell culture with (GA) and without (Control) treatment. […] FIG. 16:
# Primary mesencephalic neuronal cell cultures were prepared as previously described. Briefly, E14.5 embryos were obtained from C57JBL6 pregnant mice after cervical dislocation. Brain mesencephali were dissected under the microscope and digested with Trypsin-EDTA 0.12% (Life Technologies, USA) for 7 min. The trypsin reaction was then stopped by adding basic medium (BM), containing Neurobasal A medium (Gibco, USA), 1 mg/mL Pen/Strep, 10% FCS, and […] L-Glutamine, and cells were mechanically dissociated using a fire-polished Pasteur pipette. Medium was fully replaced after 5 min, centrifugation at 1200 rpm, aspiring the supernatant and adding 8 mL of fresh BM to the pellet. Concentration of cells in the medium was estimated using a Neubauer chamber and a 100 μL of medium containing 10^6 cells/mL plated per well in a 96-well plate (Greiner Sensoplate, Germany, EU). […]
# […] The effect of GA and DL on dopaminergic neurons was assessed through semi-automatic quantification of neurite length and width of TH+ neurons after treatment. […] Dopaminergic TH^+ neurons were observed using an inverted fluorescence microscope (Olympus) under a 20× objective.
structure (smiles),measurement,setting,value
"O=C(O)CO [GA, 2-hydroxyethanoic acid]",calcium influx during mitosis,[1],able to rescue this phenotype
same,GA dose at which the concentration of GA in the blood is too low,[2],lower than 50 mg/kg
same,concentration in the CSF,[2],ca. 0.33 mM
same,concentration in the blood,[2],2000 µM
same,concentration in the cerebrospinal fluid relative to blood (lower),[2],about 1:6
same,"morphology of dopaminergic neurons (neurite and axon length, secondary ramifications)",dopaminergic neurons,increases the length of the neurites and the main axon and the number of secondary ramifications
